The target of test [1] is dopaminergic receptors D2 (Homo sapiens, UniProt P14416). Description: Radioligand binding assay, dopaminergic D2 receptors. Conditions: binding assay, test compound 1×10^−6 M. The method, boiled down: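 Ki from Cheng–Prusoff conversion of Hill-fitted IC50 values, using the assay radioligand concentration and a Scatchard-determined KD. Specific binding, scintillation-counted, excluded signal remaining under excess unlabelled ligand.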

Test [2] addresses dopaminergic receptors D3 (Homo sapiens, UniProt P35462). Put plainly: Radioligand binding assay, dopaminergic D3 receptors. As to conditions: test compound 1×10^−6 M. A digest of the protocol:
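Scintillation read-out. Specific = total − nonspecific (excess cold ligand). Data as % of control specific binding / % inhibition; IC50 by Hill fit; Ki = IC50/(1+L/KD), KD from Scatchard plot.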

The target in test [3] is T1, 5-HT1A receptor (rat hippocampus) (Rattus norvegicus, UniProt P19327).
T1 construct: hippocampus; from tissue; host or cells: rat hippocampus
T1 sequence (P19327 1-422): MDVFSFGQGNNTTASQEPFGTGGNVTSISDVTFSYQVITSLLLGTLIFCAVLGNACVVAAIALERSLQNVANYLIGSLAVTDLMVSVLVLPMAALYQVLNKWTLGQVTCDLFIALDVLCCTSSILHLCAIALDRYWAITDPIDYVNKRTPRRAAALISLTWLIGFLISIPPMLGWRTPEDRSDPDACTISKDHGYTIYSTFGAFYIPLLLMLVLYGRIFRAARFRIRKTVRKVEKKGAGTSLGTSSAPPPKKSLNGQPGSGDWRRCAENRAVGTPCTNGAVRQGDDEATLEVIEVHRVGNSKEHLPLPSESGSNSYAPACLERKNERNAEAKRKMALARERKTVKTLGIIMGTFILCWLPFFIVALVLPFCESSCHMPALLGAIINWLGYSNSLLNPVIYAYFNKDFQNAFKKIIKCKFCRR
Put plainly: Radioligand binding assay, serotoninergic 5-HT1A receptors. Conditions: binding assay result in %, Table 5a.

The next test deals with T2, 5-HT2A receptor (Homo sapiens, UniProt P28223).
T2 construct: purchased PerkinElmer
T2 sequence (P28223 whole entry): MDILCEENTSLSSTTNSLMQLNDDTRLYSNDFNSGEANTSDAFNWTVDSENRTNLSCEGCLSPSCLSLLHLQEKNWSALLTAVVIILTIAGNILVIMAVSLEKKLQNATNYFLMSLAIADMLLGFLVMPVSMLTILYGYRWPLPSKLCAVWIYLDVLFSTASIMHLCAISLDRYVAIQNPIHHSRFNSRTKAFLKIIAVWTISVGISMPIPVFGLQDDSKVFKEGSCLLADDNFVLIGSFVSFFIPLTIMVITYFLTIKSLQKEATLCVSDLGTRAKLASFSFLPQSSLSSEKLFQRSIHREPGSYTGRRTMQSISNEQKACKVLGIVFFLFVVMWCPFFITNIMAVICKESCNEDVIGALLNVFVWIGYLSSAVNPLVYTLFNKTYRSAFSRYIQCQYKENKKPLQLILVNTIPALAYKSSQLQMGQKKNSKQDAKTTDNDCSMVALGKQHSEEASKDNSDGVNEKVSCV
Description: Radioligand binding assay, serotoninergic 5-HT2A receptors. Conditions: binding assay result in %, Table 5a. A digest of the protocol: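 Competition curves from scintillation-counted specific binding (total minus binding with excess unlabelled ligand) were Hill-fitted to give IC50, converted to Ki via Cheng-Prusoff using Scatchard-derived Kd.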

The target of a further test is T3, 5-HT6 receptor (Homo sapiens, UniProt P50406).
T3 construct: purchased PerkinElmer
T3 sequence (P50406 whole entry): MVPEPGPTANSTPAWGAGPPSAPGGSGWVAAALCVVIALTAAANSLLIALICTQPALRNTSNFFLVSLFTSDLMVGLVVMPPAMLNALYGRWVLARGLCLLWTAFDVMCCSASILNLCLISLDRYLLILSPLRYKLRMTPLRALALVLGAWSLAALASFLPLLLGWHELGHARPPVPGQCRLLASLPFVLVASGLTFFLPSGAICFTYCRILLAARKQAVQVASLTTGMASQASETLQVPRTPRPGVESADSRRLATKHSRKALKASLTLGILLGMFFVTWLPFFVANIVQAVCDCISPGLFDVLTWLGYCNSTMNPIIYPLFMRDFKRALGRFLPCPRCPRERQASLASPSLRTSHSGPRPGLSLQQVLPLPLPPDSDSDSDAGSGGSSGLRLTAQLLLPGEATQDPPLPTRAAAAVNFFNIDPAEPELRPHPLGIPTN
Put plainly: Radioligand binding assay, serotoninergic 5-HT6 receptors. As to conditions: binding assay result in %, Table 5a. The method, boiled down:
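Values are Ki from Cheng–Prusoff, taking IC50 from Hill nonlinear regression of competition curves and KD from a Scatchard plot. Specific binding was total minus binding with excess unlabelled ligand. Radioligand displacement was detected by scintillation counting, and data were also reported as percent of control specific binding.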

For the next test, the target named is T4, 5-HT7 receptor (Homo sapiens, UniProt P34969).
T4 construct: purchased PerkinElmer
T4 sequence (P34969 whole entry): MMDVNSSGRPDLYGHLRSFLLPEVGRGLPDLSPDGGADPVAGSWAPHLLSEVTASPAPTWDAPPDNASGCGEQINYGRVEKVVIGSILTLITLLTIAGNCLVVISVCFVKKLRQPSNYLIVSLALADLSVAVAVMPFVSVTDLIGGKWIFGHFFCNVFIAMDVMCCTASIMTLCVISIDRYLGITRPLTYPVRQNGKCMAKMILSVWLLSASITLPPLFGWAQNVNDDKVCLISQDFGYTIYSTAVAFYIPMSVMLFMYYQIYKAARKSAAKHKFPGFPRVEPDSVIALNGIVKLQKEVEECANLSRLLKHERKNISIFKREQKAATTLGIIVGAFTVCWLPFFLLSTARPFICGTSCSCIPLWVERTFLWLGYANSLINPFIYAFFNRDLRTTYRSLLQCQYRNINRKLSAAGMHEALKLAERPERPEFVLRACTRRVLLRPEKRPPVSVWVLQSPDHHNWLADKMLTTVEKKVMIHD
Description: Radioligand binding assay, serotoninergic 5-HT7 receptors. Conditions: binding assay result in %, Table 5a. The method, boiled down:
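Ki values used the Cheng–Prusoff equation, with KD from Scatchard analysis, applied to IC50 from Hill fits of human 5-HT7 radioligand competition curves. Bound radioligand was counted by scintillation, and excess unlabelled ligand set the non-specific binding.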

Test [4] deals with α1 adrenergic receptors (rat cerebral cortex). Put plainly: Radioligand binding assay, adrenergic α1 receptors. Conditions: test compound 1×10^−6 M. The source says:
The specific ligand binding to the receptors is defined as the difference between the total binding and the non-specific binding determined in the presence of the excess of unlabelled ligand.
The results are expressed as a percent of control specific binding ((measured specific binding/control specific binding)×100) and as a percent inhibition of control specific binding (100−((measured specific binding/control specific binding)×100)) obtained in the presence of the test compounds. The specific ligand binding to the receptors is defined as the difference between the total binding and the nonspecific binding determined in the presence of an excess of unlabelled ligand. Scintillation counting was the method of detection of ligand binding. The IC50 values (concentration causing a half-maximal inhibition of control specific binding) were determined by non-linear regression analysis of the competition curves generated with mean replicate values using Hill equation curve fitting (Y=D+[(A−D)/(1+(C/C50)nH)], where Y=specific binding, D=minimum specific binding, A=maximum specific binding, C=compound concentration, C50=IC50, and nH=slope factor). […] The inhibition constants (Ki) were calculated using the Cheng Prusoff equation (Ki=IC50/(1+(L/KD)), where L=concentration of radioligand in the assay, and KD=affinity of the radioligand for the receptor). A scatchard plot was used to determine the Kd.

Test [5] has as its target T5, serotonin transporter (SERT) (Homo sapiens, UniProt P31645).
T5 construct: expressed in transfected cells; host or cells: CHO cells
Description: Radioligand binding assay, serotonin transporter (SERT). As to conditions: binding assay, test compound 1×10^−6 M. The method, boiled down: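 Values are derived from competition curves fitted by the Hill equation to give IC50, then converted to Ki by Cheng-Prusoff with radioligand Kd from Scatchard analysis. Specific binding equals total minus non-specific (excess cold ligand), counted by scintillation, and is also expressed as percent inhibition of control.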

We go through twelve molecules from patent publication US20140135310A1, “SULPHONAMIDE DERIVATIVES OF ALICYCLIC AMINES FOR THE TREATMENT OF CENTRAL NERVOUS SYSTEM DISEASES” (Adamed Sp. z o.o., priority 2011, published 2014).

For orientation: inhibition means the drop in the measured response relative to a control, in per cent.

dopaminergic receptors D3, sequence (P35462 whole entry): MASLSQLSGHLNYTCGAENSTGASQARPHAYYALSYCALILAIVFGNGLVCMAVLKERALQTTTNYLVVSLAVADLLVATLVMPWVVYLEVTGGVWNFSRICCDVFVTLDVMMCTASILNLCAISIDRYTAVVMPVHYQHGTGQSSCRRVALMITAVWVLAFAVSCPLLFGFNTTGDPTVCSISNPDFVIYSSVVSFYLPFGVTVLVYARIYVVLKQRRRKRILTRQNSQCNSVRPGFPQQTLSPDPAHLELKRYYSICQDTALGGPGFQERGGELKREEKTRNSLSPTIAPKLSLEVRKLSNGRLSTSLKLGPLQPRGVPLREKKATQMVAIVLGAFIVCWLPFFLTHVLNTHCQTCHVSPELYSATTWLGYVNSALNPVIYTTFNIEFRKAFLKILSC
dopaminergic receptors D2, sequence (P14416 whole entry): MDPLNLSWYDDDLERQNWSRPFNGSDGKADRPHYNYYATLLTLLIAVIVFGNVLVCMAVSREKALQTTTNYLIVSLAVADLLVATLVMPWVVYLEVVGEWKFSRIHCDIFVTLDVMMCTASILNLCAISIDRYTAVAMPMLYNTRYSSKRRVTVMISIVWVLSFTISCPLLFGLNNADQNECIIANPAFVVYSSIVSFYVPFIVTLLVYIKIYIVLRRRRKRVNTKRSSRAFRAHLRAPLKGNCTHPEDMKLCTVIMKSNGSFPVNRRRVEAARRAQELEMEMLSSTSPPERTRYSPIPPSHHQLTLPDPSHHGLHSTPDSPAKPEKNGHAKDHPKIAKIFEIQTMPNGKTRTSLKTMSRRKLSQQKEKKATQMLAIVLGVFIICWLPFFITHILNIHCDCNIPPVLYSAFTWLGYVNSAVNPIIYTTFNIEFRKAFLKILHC
T5 sequence (P31645 whole entry): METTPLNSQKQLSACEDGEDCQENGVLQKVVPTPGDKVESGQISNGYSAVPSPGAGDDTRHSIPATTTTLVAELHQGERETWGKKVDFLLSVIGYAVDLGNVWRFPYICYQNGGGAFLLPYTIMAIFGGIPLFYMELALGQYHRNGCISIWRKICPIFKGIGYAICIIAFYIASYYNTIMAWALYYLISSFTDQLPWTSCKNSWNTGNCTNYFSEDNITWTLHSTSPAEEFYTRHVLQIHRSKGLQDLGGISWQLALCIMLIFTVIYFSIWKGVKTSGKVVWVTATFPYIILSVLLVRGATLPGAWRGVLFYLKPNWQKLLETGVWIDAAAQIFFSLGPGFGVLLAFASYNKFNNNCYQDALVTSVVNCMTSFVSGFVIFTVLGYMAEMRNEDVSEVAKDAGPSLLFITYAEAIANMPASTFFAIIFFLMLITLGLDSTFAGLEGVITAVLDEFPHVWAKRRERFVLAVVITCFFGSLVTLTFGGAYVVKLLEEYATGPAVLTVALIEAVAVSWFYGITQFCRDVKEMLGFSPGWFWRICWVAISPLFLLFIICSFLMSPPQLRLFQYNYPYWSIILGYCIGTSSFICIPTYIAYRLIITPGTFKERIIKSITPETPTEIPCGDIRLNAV

Consider `Cn1ccc2cc(S(=O)(=O)NCC3CN(CCOc4cccc5c4OCCO5)C3)ccc21` [Compound 187, N-[[1-[2-(2,3-Dihydro-1,4-benzodioxin-5-yloxy)ethyl]azetidin-3-yl]methyl]-1-methyl-indole-5-sulphonamide], for which the inhibition at 1 µM in test [1] was 56%; in test [2], 48%; in test [3], 78%; on 5-HT2A receptor, 93%; on 5-HT6 receptor, 44%; on 5-HT7 receptor it was 98%. Also, the inhibition at 1 µM in test [5] worked out at 69%. Moreover, the “α1 [%]” value in test [4] is 88%.
Turning to `Cc1c(S(=O)(=O)NCC2CN(CCOc3cccc4c3OCCO4)C2)sc2ccc(Cl)cc12` [Compound 175, 5-Chloro-N-[[1-[2-(2,3-dihydro-1,4-benzodioxin-5-yloxy)ethyl]azetidin-3-yl]methyl]-3-methyl-benzothiophene-2-sulphonamide], the inhibition at 1 µM in test [1] was 68%; in test [2] it was 78%; in test [3] it was 75%; at 5-HT2A receptor, 105%; on 5-HT6 receptor, 95%; on 5-HT7 receptor, 92%. The inhibition at 1 µM in test [5] came to 19%. Also, the “α1 [%]” value in test [4] is 50%.
Take `Cc1c(S(=O)(=O)NCC2CCN(CCOc3cccc4ccccc34)C2)sc2ccc(F)cc12` (stereo not drawn) [Compound 271, 5-Fluoro-3-methyl-N-[[1-[2-(1-naphthyloxy)ethyl]pyrrolidin-3-yl]methyl]benzothiophene-2-sulphonamide]: the inhibition at 1 µM in test [1] was 45%; in test [2], 93%; in test [3], 82%; at 5-HT2A receptor, 97%; on 5-HT6 receptor, 76%; on 5-HT7 receptor, 104%. Moreover, the inhibition at 1 µM in test [5] is 40%. Besides, in test [4], the “α1 [%]” value is listed as −1%.
Take `Cc1c(S(=O)(=O)NCC2CN(CCOc3cccc4ccccc34)C2)sc2ccc(Cl)cc12` [Compound 167, 5-Chloro-3-methyl-N-[[1-[2-(1-naphthyloxy)ethyl]azetidin-3-yl]methyl]benzothiophene-2-sulphonamide]: the inhibition at 1 µM is 60% in test [1]; 97% in test [2]; 75% in test [3]; 95% on 5-HT2A receptor; 94% at 5-HT6 receptor; 90% at 5-HT7 receptor. Also, the inhibition at 1 µM in test [5] worked out at 31%. For the same molecule, the “α1 [%]” value in test [4] is listed as 3%.
Turning to `O=S(=O)(NCC1CN(CCOc2cccc3c2OCCO3)C1)c1ccc(I)cc1` [Compound 193, N-[[1-[2-(2,3-Dihydro-1,4-benzodioxin-5-yloxy)ethyl]azetidin-3-yl]methyl]-4-iodo-benzenesulphonamide], the inhibition at 1 µM in test [1] turned out to be 81%; in test [2] it was 55%; in test [3], 84%; at 5-HT2A receptor, 88%; at 5-HT6 receptor, 9%; on 5-HT7 receptor, 92%. Besides, in test [5], the inhibition at 1 µM worked out at 41%. Also, the “α1 [%]” value in test [4] is listed as 71%.
For the molecule `O=S(=O)(NCC1CN(CCOc2cccc3c2OCCO3)C1)c1ccc(Br)cc1` [Compound 185, 4-Bromo-N-[[1-[2-(2,3-dihydro-1,4-benzodioxin-5-yloxy)ethyl]azetidin-3-yl]methyl]benzenesulphonamide], the inhibition at 1 µM is 25% in test [1]; 0% in test [2]; 88% in test [3]; 39% at 5-HT2A receptor; 23% at 5-HT6 receptor; 90% on 5-HT7 receptor. Further, the inhibition at 1 µM in test [5] worked out at 23%. For the same molecule, the “α1 [%]” value in test [4] is on record as 34%.
As to `O=S(=O)(NC1CCN(CCOc2cccc3[nH]ccc23)C1)c1ccc2ccccc2c1` (stereo not drawn) [Compound 54, N-[1-[2-(1H-Indol-4-yloxy)ethyl]pyrrolidin-3-yl]naphthalene-2-sulphonamide], the inhibition at 1 µM in test [1] amounted to 83%; in test [2] it was 105%; in test [3], 90%; on 5-HT2A receptor, 88%; on 5-HT6 receptor, 87%; at 5-HT7 receptor, 102%. For the same molecule, the inhibition at 1 µM in test [5] came to 46%. In addition, the “α1 [%]” value in test [4] amounted to 90%.
For the molecule `O=S(=O)(NC1CN(CCOc2cccc3c2OCCO3)C1)c1ccc2ccccc2c1` [Compound 95, N-[1-[2-(2,3-Dihydro-1,4-benzodioxan-8-yloxy)ethyl]azetidin-3-yl]naphthalene-2-sulphonamide], the “D2 [%]” value in test [1] worked out at 5%. Besides, the “D3 [%]” value in test [2] stood at 1%. Further, the “5-HT1A [%]” value in test [3] was determined as 94%. The “5-HT2A [%]” value at 5-HT2A receptor is reported as 0%. On 5-HT6 receptor, the “5-HT6 [%]” value turned out to be 9%. On 5-HT7 receptor, the “5-HT7 [%]” value is recorded as 94%. Besides, the “α1 [%]” value in test [4] is reported as −21%. Moreover, the “SERT [%]” value in test [5] is recorded as −4%.
As for `O=S(=O)(NCC1CCN(CCOc2cccc3ccccc23)C1)c1ccc(F)c(Cl)c1` (stereo not drawn) [Compound 277, 3-Chloro-4-fluoro-N-[[1-[2-(1-naphthyloxy)ethyl]pyrrolidin-3-yl]methyl]benzenesulphonamide], the inhibition at 1 µM in test [1] stood at 34%; in test [2], 90%; in test [3], 85%; on 5-HT2A receptor it was 85%; at 5-HT6 receptor it was 93%; on 5-HT7 receptor it was 108%. In test [5], the inhibition at 1 µM was 68%. Moreover, the “α1 [%]” value in test [4] is reported as 21%.
Turning to `Cn1ccc2cc(S(=O)(=O)NCC3CCN(CCOc4cccc5ccccc45)C3)ccc21` (stereo not drawn) [Compound 274, 1-Methyl-N-[[1-[2-(1-naphthyloxy)ethyl]pyrrolidin-3-yl]methyl]indole-5-sulphonamide], the inhibition at 1 µM came to 62% in test [1]; 81% in test [2]; 77% in test [3]; 89% on 5-HT2A receptor; 97% at 5-HT6 receptor; 86% on 5-HT7 receptor. Moreover, the inhibition at 1 µM in test [5] came to 109%. Also, the “α1 [%]” value in test [4] turned out to be 41%.
Take `O=S(=O)(NCC1CN(CCOc2cccc3ccccc23)C1)c1cccc2ccccc12` [Compound 168, N-[[1-[2-(1-Naphthyloxy)ethyl]azetidin-3-yl]methyl]naphthalene-1-sulphonamide]: the inhibition at 1 µM in test [1] is 64%; in test [2], 94%; in test [3], 79%; at 5-HT2A receptor, 96%; on 5-HT6 receptor, 93%; at 5-HT7 receptor, 92%. Moreover, the inhibition at 1 µM in test [5] is 25%. For the same molecule, the “α1 [%]” value in test [4] is 31%.
Consider `Cc1cccc(S(=O)(=O)NC2CCN(CCOc3cccc4[nH]ccc34)C2)c1` (stereo not drawn) [Compound 52, N-[1-[2-(1H-Indol-4-yloxy)ethyl]pyrrolidin-3-yl]-3-methylbenzene-sulphonamide], for which the inhibition at 1 µM was found to be 77% in test [1]; 106% in test [2]; 90% in test [3]; 89% at 5-HT2A receptor; 41% on 5-HT6 receptor; 90% on 5-HT7 receptor. Further, the inhibition at 1 µM in test [5] was 38%. Also, in test [4], the “α1 [%]” value stood at 81%.
